The results in this text go back to US8697683B2, “Azetidinyl diamides as monoacylglycerol lipase inhibitors” (Janssen Pharmaceutica, NV, priority 2009, dated 2014).

Molecules are shown by their SMILES.

The target in one assay is T1, MGL (Rattus norvegicus, UniProt Q8R431).
T1 construct: one g rat brain was homogenized
T1 sequence (Q8R431 1-303): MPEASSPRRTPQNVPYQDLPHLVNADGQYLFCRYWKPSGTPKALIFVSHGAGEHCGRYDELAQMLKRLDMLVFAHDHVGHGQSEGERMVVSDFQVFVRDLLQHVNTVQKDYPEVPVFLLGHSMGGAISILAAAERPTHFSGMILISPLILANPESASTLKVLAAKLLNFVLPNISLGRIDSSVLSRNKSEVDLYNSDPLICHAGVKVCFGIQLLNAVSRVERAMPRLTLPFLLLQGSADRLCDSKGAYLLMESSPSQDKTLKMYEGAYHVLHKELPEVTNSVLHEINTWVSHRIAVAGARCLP
The assay can be described thus: 2-AG Accumulation Assay (rat brain homogenate). The assay is classed as biochemical. The following applies: compound 1 μM, percent of vehicle 2-AG accumulation.
On to `O=C(c1ccc(CSc2cccc(Cl)c2)cc1)N1CC(N2CCN(C(=O)c3nccs3)CC2)C1` [Cpd 454], for which the “Rat Brain 2AG % VehCntrl (%) @1 μM” value was 1066%.

In the case of `O=C(c1ccc(CNc2cccc(Cl)c2)cc1)N1CC(N2CCN(C(=O)c3nccs3)CC2)C1` [Cpd 455], the “Rat Brain 2AG % VehCntrl (%) @1 μM” value came out at 1013%.

As for `COc1c(C(=O)N2CC(N3CCN(C(=O)c4nccs4)CC3)C2)sc2cc(C(F)(F)F)ccc12` [Cpd 649, 1-(1-{[3-Methoxy-6-(trifluoromethyl)-1-benzothiophen-2-yl]carbonyl}azetidin-3-yl)-4-(1,3-thiazol-2-ylcarbonyl)piperazine], the “Rat Brain 2AG % VehCntrl (%) @1 μM” value is 1017%.

On to `O=C(c1ccc2nc(N3CCC(F)(F)CC3)sc2c1)N1CC(N2CCN(C(=O)c3nccs3)CC2)C1` [Cpd 671], for which the “Rat Brain 2AG % VehCntrl (%) @1 μM” value turned out to be 1035%.

For the compound `O=C(c1ccc2c(c1)CCN(Cc1cccc(C(F)(F)F)c1)C2)N1CC(N2CCN(C(=O)c3nccs3)CC2)C1` [Cpd 879], the “Rat Brain 2AG % VehCntrl (%) @1 μM” value is 1027%.

For `O=C(c1nccs1)N1CCN(C2CN(C(=O)c3sc4cc(C(F)(F)F)ccc4c3F)C2)CC1` [Cpd 895, 1-(1-{[3-Fluoro-6-(trifluoromethyl)-1-benzothiophen-2-yl]carbonyl}azetidin-3-yl)-4-(1,3-thiazol-2-ylcarbonyl)piperazine], the “Rat Brain 2AG % VehCntrl (%) @1 μM” value is reported as 1207%.

Take `Cc1c(C(=O)N2CC(N3CCN(C(=O)c4nccs4)CC3)C2)sc2ccc(C(F)(F)F)cc12` [Cpd 897]: the “Rat Brain 2AG % VehCntrl (%) @1 μM” value was 1234%.

As for `Cc1c(C(=O)N2CC(N3CCN(C(=O)c4nccs4)CC3)C2)sc2cc(C(F)(F)F)ccc12` [Cpd 899, 1-(1-{[3-Methyl-6-(trifluoromethyl)-1-benzothiophen-2-yl]carbonyl}azetidin-3-yl)-4-(1,3-thiazol-2-ylcarbonyl)piperazine], the “Rat Brain 2AG % VehCntrl (%) @1 μM” value is listed as 1092%.

With `O=C(c1ccc2c(c1)CCN(S(=O)(=O)c1ccc(C(F)(F)F)cc1)C2)N1CC(N2CCN(C(=O)c3nccs3)CC2)C1` [Cpd 928], the “Rat Brain 2AG % VehCntrl (%) @1 μM” value is on record as 1207%.

Staying with this assay, now noted: compound 10 μM, percent of vehicle 2-AG accumulation.
For `O=C(c1ccc(OCc2cccc(Cl)c2Cl)c(F)c1)N1CC(N2CCN(C(=O)c3nccs3)CC2)C1` [Cpd 405, 1-[1-({4-[(2,3-Dichlorobenzyl)oxy]-3-fluorophenyl}carbonyl)azetidin-3-yl]-4-(1,3-thiazol-2-ylcarbonyl)piperazine], the “Rat Brain 2AG % VehCntrl (%) @10 μM” value came out at 1591%.

Regarding `O=C(c1ccc(SCc2cccc(Cl)c2)cc1)N1CC(N2CCN(C(=O)c3nccs3)CC2)C1` [Cpd 412, 1-[1-({4-[(3-Chlorobenzyl)sulfanyl]phenyl}carbonyl)azetidin-3-yl]-4-(1,3-thiazol-2-ylcarbonyl)piperazine], the “Rat Brain 2AG % VehCntrl (%) @10 μM” value worked out at 1271%.

With `O=C(c1ccc(SCc2cccc(Cl)c2Cl)cc1)N1CC(N2CCN(C(=O)c3nccs3)CC2)C1` [Cpd 413, 1-[1-({4-[(2,3-Dichlorobenzyl)sulfanyl]phenyl}carbonyl)azetidin-3-yl]-4-(1,3-thiazol-2-ylcarbonyl)piperazine], the “Rat Brain 2AG % VehCntrl (%) @10 μM” value stood at 1693%.

On to `O=C(c1ccc(SCc2ccc(Cl)c(Cl)c2)cc1)N1CC(N2CCN(C(=O)c3nccs3)CC2)C1` [Cpd 414, 1-[1-({4-[(3,4-Dichlorobenzyl)sulfanyl]phenyl}carbonyl)azetidin-3-yl]-4-(1,3-thiazol-2-ylcarbonyl)piperazine], for which the “Rat Brain 2AG % VehCntrl (%) @10 μM” value stood at 1608%.

For `O=C(c1ccc(SCc2ccc(Cl)cc2)cc1)N1CC(N2CCN(C(=O)c3nccs3)CC2)C1` [Cpd 415], the “Rat Brain 2AG % VehCntrl (%) @10 μM” value is 1629%.

As for `O=C(c1ccccc1)N1CCN(C2CN(C(=O)c3ccc(NCc4ccc(F)c(C(F)(F)F)c4)cc3)C2)CC1` [Cpd 494, N-[4-Fluoro-3-(trifluoromethyl)benzyl]-4-({3-[4-(phenylcarbonyl)piperazin-1-yl]azetidin-1-yl}carbonyl)aniline], the “Rat Brain 2AG % VehCntrl (%) @10 μM” value came to 1121%.

With `O=C(c1ccc(Oc2cccc(Cl)c2)c(F)c1)N1CC(N2CCN(C(=O)c3nccs3)CC2)C1` [Cpd 875], the “Rat Brain 2AG % VehCntrl (%) @10 μM” value is 1285%.
